The supplement of paper PMC10331698
± gives the standard deviation of the averaged measurements.

Compound: CN(C(=O)C(F)(F)C(F)(F)C(F)(F)F)[Si](C)(C)C [N-Methyl-N-trimethylsilylheptafluorobutyramide] (in DMSO)
Test: level (log10 ratio to DMSO vehicle control); higher = higher biomarker level / cell amount than vehicle control
Description: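 BioMAP Diversity Plus panel of 12 human primary cell co-culture systems (3C, 4H, LPS, SAg, BT, BF4T, BE3C, CASM3C, HDF3CGF, KF3CT, MyoF, Mphg). Compounds were added 1 h before stimulation and left for 24 h (MyoF 48 h; BT 72 h for soluble read-outs or 6 d for IgG). Biomarkers were read by ELISA, cytotoxicity by SRB, PBMC viability and proliferation by Alamar Blue. Each well value was divided by the mean of 8 DMSO control wells on the same plate and log10 transformed; duplicate blinded samples were tested at 4 concentrations.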

| Test System | level (log10) (6700 nM) | level (log10) (20000 nM) | level (log10) (60000 nM) |
| --- | --- | --- | --- |
| 3C:CD87/uPAR | -0.0105 ± 0.0021 | -0.0155 ± 0.0078 | -0.007 ± 0.0042 |
| 3C:CXCL8/IL-8 | -0.016 ± 0.0071 | -0.017 ± 0.0042 | 0.007 ± 0.017 |
| 3C:CXCL9/MIG | -0.0045 ± 0.0035 | -0.0005 ± 0.0035 | 0.0065 ± 0.0092 |
| 3C:HLA-DR | 0.0015 ± 0.015 | 0.0045 ± 0.012 | 0.0285 ± 0.033 |
| 3C:Proliferation | -0.0305 ± 0.0092 | 0.003 ± 0.027 | -0.005 ± 0.0057 |
| 3C:SRB | 0.0135 ± 0.013 | 0.0035 ± 0.032 | 0.0075 ± 0.011 |
| 4H:CCL2/MCP-1 | -0.0405 ± 0.028 | -0.0525 ± 0.039 | 0.0195 ± 0.11 |
| 4H:CCL26/Eotaxin-3 | -0.0005 ± 0.005 | -0.001 | -0.003 ± 0.024 |
| 4H:CD62P/P-selectin | -0.0065 ± 0.067 | -0.011 ± 0.052 | 0.002 ± 0.047 |
| 4H:CD87/uPAR | 0.011 ± 0.021 | 0.0135 ± 0.016 | 0.0055 ± 0.019 |
| 4H:CD106/VCAM-1 | -0.011 | -0.0305 ± 0.049 | -0.023 ± 0.065 |
| 4H:SRB | 0.005 ± 0.0085 | 0.0055 ± 0.022 | -0.003 ± 0.011 |
| 4H:VEGFR2 | 0.006 ± 0.0057 | 0.003 ± 0.0099 | 0.019 ± 0.042 |
| BE3C:CD54/ICAM-1 | -0.0005 ± 0.005 | 0.0045 ± 0.0064 | 0.001 ± 0.0028 |
| BE3C:CD87/uPAR | 0.0055 ± 0.016 | 0.0275 ± 0.019 | 0.0275 ± 0.026 |
| BE3C:CXCL8/IL-8 | 0.019 ± 0.054 | 0.0175 ± 0.061 | 0.055 ± 0.11 |
| BE3C:CXCL9/MIG | 0.0065 ± 0.018 | 0.0005 ± 0.00071 | 0.004 ± 0.027 |
| BE3C:CXCL10/IP-10 | -0.006 ± 0.0028 | 0.005 ± 0.0014 | 0.007 ± 0.011 |
| BE3C:CXCL11/I-TAC | -0.01 ± 0.0071 | 0.003 ± 0.014 | 0.012 ± 0.031 |
| BE3C:EGFR | -0.0065 ± 0.00071 | -0.0165 ± 0.013 | -0.01 ± 0.028 |
| BE3C:HLA-DR | -0.009 ± 0.0014 | -0.0105 ± 0.0021 | 0.009 ± 0.033 |
| BE3C:IL-1alpha | 0.0045 ± 0.005 | -0.0075 ± 0.019 | 0.032 ± 0.014 |
| BF4T:CCL2/MCP-1 | 0.002 ± 0.0014 | 0.002 ± 0.0042 | 0.018 ± 0.018 |

| Test System | level (log10) (6700 nM) | level (log10) (20000 nM) | level (log10) (60000 nM) |
| --- | --- | --- | --- |
| BF4T:CCL26/Eotaxin-3 | -0.0025 ± 0.035 | -0.0135 ± 0.015 | 0.0045 ± 0.0078 |
| BF4T:CD54/ICAM-1 | -0.0145 ± 0.0064 | -0.0045 ± 0.023 | -0.0115 ± 0.00071 |
| BF4T:CD90 | -0.0225 ± 0.022 | -0.006 ± 0.0071 | 0.0065 ± 0.005 |
| BF4T:CD106/VCAM-1 | 0.0095 ± 0.025 | 0.0315 ± 0.015 | 0.0035 ± 0.026 |
| BF4T:CXCL8/IL-8 | -0.008 ± 0.024 | -0.0025 ± 0.018 | 0.0025 ± 0.019 |
| BF4T:IL-1alpha | -0.015 ± 0.016 | -0.0135 ± 0.016 | 0.015 ± 0.042 |
| BF4T:Keratin 8/18 | -0.0105 ± 0.052 | 0.0115 ± 0.03 | 0.013 ± 0.017 |
| BF4T:MMP-1 | -0.0105 ± 0.04 | -0.0105 ± 0.054 | 0.0005 ± 0.018 |
| BF4T:MMP-3 | -0.016 ± 0.031 | -0.008 ± 0.011 | 0 ± 0.017 |
| BF4T:MMP-9 | -0.0305 ± 0.064 | -0.012 ± 0.033 | 0.0095 ± 0.023 |
| BF4T:PAI-I | 0.0055 ± 0.04 | -0.007 ± 0.017 | 0.0025 ± 0.0064 |
| BF4T:SRB | -0.0055 ± 0.00071 | -0.003 ± 0.0042 | -0.0005 ± 0.00071 |
| BF4T:tPA | -0.0155 ± 0.015 | 0.0015 ± 0.032 | 0.012 ± 0.0057 |
| BF4T:uPA | -0.013 ± 0.031 | -0.012 ± 0.013 | -0.008 ± 0.0028 |
| BT:B cell Proliferation | 0.01 ± 0.014 | -0.01 ± 0.02 | -0.007 ± 0.0014 |
| BT:PBMC Cytotoxicity | -0.007 ± 0.0014 | 0.0035 ± 0.022 | 0.0055 ± 0.044 |
| BT:Secreted IgG | 0.01 ± 0.011 | 0.016 ± 0.03 | 0.013 ± 0.048 |
| BT:sIL-2 | -0.0665 ± 0.013 | -0.0325 ± 0.056 | 0.045 ± 0.042 |
| BT:sIL-6 | -0.054 ± 0.021 | -0.0635 ± 0.0035 | 0.002 ± 0.02 |
| BT:sIL-17A | -0.0195 ± 0.073 | -0.192 ± 0.11 | 0.071 ± 0.0042 |
| BT:sIL-17F | -0.017 ± 0.027 | -0.008 ± 0.13 | 0.0005 ± 0.07 |
| BT:sTNF-alpha | -0.014 ± 0.062 | -0.0875 ± 0.054 | 0.079 ± 0.13 |
| LPS:CCL2/MCP-1 | -0.0085 ± 0.0021 | -0.012 ± 0.013 | -0.0005 ± 0.023 |

| Test System | level (log10) (6700 nM) | level (log10) (20000 nM) | level (log10) (60000 nM) |
| --- | --- | --- | --- |
| LPS:CD40 | -0.023 ± 0.027 | -0.0065 ± 0.011 | -0.0325 ± 0.025 |
| LPS:CD62E/E-Selectin | 0.0095 ± 0.026 | 0.002 ± 0.014 | 0.0105 ± 0.054 |
| LPS:CD69 | -0.004 ± 0.011 | -0.013 ± 0.041 | 0.004 ± 0.011 |
| LPS:CD106/VCAM-1 | -0.0165 ± 0.0021 | -0.0035 ± 0.005 | -0.004 ± 0.041 |
| LPS:CD141/Thrombomodulin | -0.0125 ± 0.0064 | -0.014 ± 0.0085 | -0.018 ± 0.014 |
| LPS:CD142/Tissue Factor | 0.015 ± 0.065 | 0.0255 ± 0.1 | -0.0085 ± 0.1 |
| LPS:CXCL8/IL-8 | 0.008 ± 0.0028 | 0.0245 ± 0.018 | 0.016 ± 0.052 |
| LPS:IL-1alpha | -0.004 ± 0.041 | 0.017 ± 0.0071 | 0.02 ± 0.0028 |
| LPS:M-CSF | -0.0075 ± 0.0092 | -0.0135 ± 0.012 | -0.0045 ± 0.079 |
| LPS:SRB | 0.0045 ± 0.012 | 0.0045 ± 0.0078 | 0 ± 0.0028 |
| LPS:sPGE2 | 0.0035 ± 0.011 | 0.0095 ± 0.044 | -0.023 ± 0.057 |
| LPS:sTNF-alpha | -0.004 ± 0.0042 | -0.002 ± 0.011 | -0.0065 ± 0.015 |
| SAg:CCL2/MCP-1 | -0.0135 ± 0.0078 | -0.012 ± 0.018 | -0.0005 ± 0.026 |
| SAg:CD38 | -0.0015 ± 0.019 | -0.009 ± 0.0014 | 0.0115 ± 0.023 |
| SAg:CD40 | -0.0185 ± 0.059 | -0.009 ± 0.0042 | -0.0075 ± 0.00071 |
| SAg:CD62E/E-Selectin | -0.017 ± 0.0085 | -0.017 ± 0.017 | -0.0225 ± 0.021 |
| SAg:CD69 | -0.024 ± 0.0014 | 0.0015 ± 0.0078 | -0.0025 ± 0.015 |
| SAg:CXCL8/IL-8 | -0.0015 ± 0.018 | -0.0385 ± 0.019 | -0.007 ± 0.035 |
| SAg:CXCL9/MIG | 0.007 ± 0.0057 | -0.009 ± 0.0014 | -0.0135 ± 0.0078 |
| SAg:PBMC Cytotoxicity | -0.0155 ± 0.00071 | 0.011 ± 0.014 | 0.011 ± 0.025 |
| SAg:Proliferation | 0.0395 ± 0.015 | 0.0565 ± 0.028 | 0.0635 ± 0.088 |
| SAg:SRB | 0.0055 ± 0.013 | 0.013 ± 0.0042 | 0.008 ± 0.0099 |
